Results published in ChEMBL document CHEMBL1154644 (J Med Chem, 2009).
Activity calls are given as the source filed them. The rule behind the calls is not given here.

What was measured:
[1] = biological target: T1, Serine/threonine-protein kinase mTOR (Homo sapiens, UniProt P42345); assay: Inhibition of human mTOR by DELFIA assay; type: single protein
[2] = Selectivity for human mTOR over PI3Kalpha
[3] = biological target: Phosphatidylinositol 4,5-bisphosphate 3-kinase catalytic subunit alpha isoform (Homo sapiens, UniProt P42336); assay: Inhibition of PI3Kalpha by fluorescence polarization assay
[4] = Clearance in rat hepatocyte assessed as half life; type: ADME, cell-based, Liver; details: hepatocytes
[5] = biological target: T1, Serine/threonine-protein kinase mTOR; assay: Inhibition of mTOR-mediated signaling in human A498 cells assessed as inhibition of phosphorylation of S6K1(T389) measured after 6 hrs by immunoblotting; type: cell-based
[6] = biological target: T1, Serine/threonine-protein kinase mTOR; assay: Inhibition of mTOR-mediated signaling in human A498 cells assessed as inhibition of phosphorylation of 4EBP1 (T70) measured after 6 hrs by immunoblotting; type: cell-based
[7] = biological target: T1, Serine/threonine-protein kinase mTOR; assay: Inhibition of mTOR-mediated signaling in human A498 cells assessed as inhibition of phosphorylation of 4EBP1 (T37/46) measured after 6 hrs by immunoblotting; type: cell-based
[8] = biological target: T1, Serine/threonine-protein kinase mTOR; assay: Inhibition of mTOR-mediated signaling in human A498 cells assessed as inhibition of mTORC2 biomarker measured after 6 hrs by immunoblotting; type: cell-based
[9] = biological target: T1, Serine/threonine-protein kinase mTOR; assay: Inhibition of mTOR-mediated signaling in PTEN-negative, PI3K/AKT-hyperactive human U87MG cells assessed as inhibition of phosphorylation of S6K1(T389) measured after 6 hrs by immunoblotting; type: cell-based; details: U-87MG ATCC
[10] = biological target: T1, Serine/threonine-protein kinase mTOR; assay: Inhibition of mTOR-mediated signaling in PTEN-negative, PI3K/AKT-hyperactive human U87MG cells assessed as inhibition of phosphorylation of AKT(S473) measured after 6 hrs by immunoblotting; type: cell-based; details: U-87MG ATCC
[11] = biological target: T1, Serine/threonine-protein kinase mTOR; assay: Inhibition of mTOR-mediated signaling in PTEN-negative, PI3K/AKT-hyperactive human U87MG cells assessed as inhibition of phosphorylation of AKT(T308) measured after 6 hrs by immunoblotting; type: cell-based; details: U-87MG ATCC
[12] = biological target: T1, Serine/threonine-protein kinase mTOR; assay: Inhibition of mTOR-mediated signaling in PTEN-negative, PI3K/AKT-hyperactive human U87MG cells assessed as inhibition of PI3K/PDK1 measured after 6 hrs by immunoblotting; type: cell-based; details: U-87MG ATCC
[13] = biological target: Dual specificity protein kinase CLK1 (Homo sapiens) (UniProt P49759); assay: Inhibition of CLK1 at 2 uM
[14] = biological target: Serine/threonine-protein kinase 25 (Homo sapiens) (UniProt O00506); assay: Inhibition of STK25 at 2 uM
[15] = biological target: Tyrosine-protein kinase JAK2 (Homo sapiens) (UniProt O60674); assay: Inhibition of JAK2 at 2 uM
[16] = Inhibition of AMPK at 2 uM
[17] = biological target: Serine/threonine-protein kinase PAK 2 (Homo sapiens) (UniProt Q13177); assay: Inhibition of PAK2 at 2 uM
[18] = biological target: Tyrosine-protein kinase CSK (Homo sapiens) (UniProt P41240); assay: Inhibition of CSK at 2 uM
[19] = biological target: Fibroblast growth factor receptor 1 (Homo sapiens) (UniProt P11362); assay: Inhibition of FGFR1 at 2 uM
[20] = biological target: Serine/threonine-protein kinase 26 (Homo sapiens) (UniProt Q9P289); assay: Inhibition of MST4 at 2 uM
[21] = biological target: Angiopoietin-1 receptor (Homo sapiens) (UniProt Q02763); assay: Inhibition of TEK at 2 uM
[22] = biological target: BDNF/NT-3 growth factors receptor (Homo sapiens) (UniProt Q16620); assay: Inhibition of NTRK2 at 2 uM
[23] = biological target: Serine/threonine-protein kinase PAK 5 (Homo sapiens) (UniProt Q9P286); assay: Inhibition of PAK7 at 2 uM
[24] = biological target: T2, Serine/threonine-protein kinase Sgk3 (Homo sapiens) (UniProt Q96BR1); assay: Inhibition of SGKL at 2 uM
T2 sequence (whole entry): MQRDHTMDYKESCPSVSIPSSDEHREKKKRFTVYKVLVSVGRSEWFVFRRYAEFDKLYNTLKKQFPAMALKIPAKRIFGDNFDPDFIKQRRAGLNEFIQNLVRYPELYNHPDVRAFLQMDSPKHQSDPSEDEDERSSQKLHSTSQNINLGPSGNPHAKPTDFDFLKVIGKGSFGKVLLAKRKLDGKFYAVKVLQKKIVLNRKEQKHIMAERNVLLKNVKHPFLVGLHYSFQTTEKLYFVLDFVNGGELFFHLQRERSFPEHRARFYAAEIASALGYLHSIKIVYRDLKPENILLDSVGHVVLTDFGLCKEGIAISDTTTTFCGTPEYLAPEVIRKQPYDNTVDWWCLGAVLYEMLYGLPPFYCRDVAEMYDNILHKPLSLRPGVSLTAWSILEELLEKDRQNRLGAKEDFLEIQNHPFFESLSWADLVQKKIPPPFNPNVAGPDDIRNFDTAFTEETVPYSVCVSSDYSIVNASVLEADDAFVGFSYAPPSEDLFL

[25] = biological target: T1, Serine/threonine-protein kinase mTOR; assay: Inhibition of human mTOR assessed as ATP competitive inhibition by Lineweaver-Burke double reciprocal dose-response plot
[26] = biological target: Serine/threonine-protein kinase D3 (PRKD3/PKCν) (Homo sapiens) (UniProt O94806); assay: Inhibition of PRKCN at 2 uM
[27] = biological target: T1, Serine/threonine-protein kinase mTOR; assay: Inhibition of mTOR-mediated signaling in human A498 cells assessed as inhibition of phosphorylation of AKT (S473) measured after 6 hrs by immunoblotting

Phosphatidylinositol 4,5-bisphosphate 3-kinase catalytic subunit alpha isoform, sequence (P42336 whole entry, canonical isoform): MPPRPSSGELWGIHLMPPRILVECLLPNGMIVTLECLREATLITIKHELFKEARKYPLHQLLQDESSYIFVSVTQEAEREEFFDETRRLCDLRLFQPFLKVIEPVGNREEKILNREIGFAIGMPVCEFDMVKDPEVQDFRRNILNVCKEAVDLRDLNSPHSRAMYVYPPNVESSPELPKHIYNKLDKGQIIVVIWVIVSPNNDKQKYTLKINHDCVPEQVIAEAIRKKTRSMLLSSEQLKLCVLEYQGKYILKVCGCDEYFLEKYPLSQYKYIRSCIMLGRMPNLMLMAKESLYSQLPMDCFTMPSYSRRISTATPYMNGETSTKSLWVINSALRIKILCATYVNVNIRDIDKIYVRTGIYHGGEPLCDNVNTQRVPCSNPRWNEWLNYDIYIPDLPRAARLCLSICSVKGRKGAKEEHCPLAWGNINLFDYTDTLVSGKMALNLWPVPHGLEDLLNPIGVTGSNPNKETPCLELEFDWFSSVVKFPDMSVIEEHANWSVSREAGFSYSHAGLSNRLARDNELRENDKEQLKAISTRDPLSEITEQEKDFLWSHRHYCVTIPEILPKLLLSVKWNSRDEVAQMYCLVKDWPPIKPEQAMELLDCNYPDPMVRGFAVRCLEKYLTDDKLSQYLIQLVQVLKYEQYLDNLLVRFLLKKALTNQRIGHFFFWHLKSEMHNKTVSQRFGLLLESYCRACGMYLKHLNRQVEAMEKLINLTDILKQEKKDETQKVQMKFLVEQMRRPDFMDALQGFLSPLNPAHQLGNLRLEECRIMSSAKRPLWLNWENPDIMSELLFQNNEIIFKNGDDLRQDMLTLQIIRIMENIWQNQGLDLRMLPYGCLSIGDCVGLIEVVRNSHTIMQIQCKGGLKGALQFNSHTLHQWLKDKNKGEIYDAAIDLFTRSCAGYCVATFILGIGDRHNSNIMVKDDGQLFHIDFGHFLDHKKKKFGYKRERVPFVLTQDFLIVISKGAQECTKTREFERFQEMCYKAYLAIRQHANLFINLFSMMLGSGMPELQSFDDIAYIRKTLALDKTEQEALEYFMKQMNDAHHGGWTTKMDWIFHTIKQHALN
Serine/threonine-protein kinase PAK 5 (Homo sapiens), sequence (Q9P286 whole entry, looked up): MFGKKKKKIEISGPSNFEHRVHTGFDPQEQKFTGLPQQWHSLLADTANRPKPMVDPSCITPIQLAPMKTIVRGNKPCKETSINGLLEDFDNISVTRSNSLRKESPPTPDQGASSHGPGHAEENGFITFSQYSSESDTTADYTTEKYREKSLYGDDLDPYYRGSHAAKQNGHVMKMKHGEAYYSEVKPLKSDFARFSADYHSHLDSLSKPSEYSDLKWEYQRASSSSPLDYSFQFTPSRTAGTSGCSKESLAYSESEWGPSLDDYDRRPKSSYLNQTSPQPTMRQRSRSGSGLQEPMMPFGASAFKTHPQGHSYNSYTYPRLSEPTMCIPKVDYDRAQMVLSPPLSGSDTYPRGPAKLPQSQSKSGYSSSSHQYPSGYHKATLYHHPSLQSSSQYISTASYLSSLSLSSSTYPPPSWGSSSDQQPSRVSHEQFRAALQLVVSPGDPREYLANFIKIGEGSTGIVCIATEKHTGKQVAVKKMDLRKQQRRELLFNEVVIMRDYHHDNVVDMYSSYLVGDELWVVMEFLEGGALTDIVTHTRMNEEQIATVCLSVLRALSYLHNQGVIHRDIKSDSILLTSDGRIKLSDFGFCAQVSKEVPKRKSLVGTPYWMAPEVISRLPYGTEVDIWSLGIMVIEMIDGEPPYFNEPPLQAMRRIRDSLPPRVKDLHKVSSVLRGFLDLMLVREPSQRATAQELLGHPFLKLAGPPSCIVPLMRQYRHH
Tyrosine-protein kinase CSK (Homo sapiens), sequence (P41240 2-450 limits assumed): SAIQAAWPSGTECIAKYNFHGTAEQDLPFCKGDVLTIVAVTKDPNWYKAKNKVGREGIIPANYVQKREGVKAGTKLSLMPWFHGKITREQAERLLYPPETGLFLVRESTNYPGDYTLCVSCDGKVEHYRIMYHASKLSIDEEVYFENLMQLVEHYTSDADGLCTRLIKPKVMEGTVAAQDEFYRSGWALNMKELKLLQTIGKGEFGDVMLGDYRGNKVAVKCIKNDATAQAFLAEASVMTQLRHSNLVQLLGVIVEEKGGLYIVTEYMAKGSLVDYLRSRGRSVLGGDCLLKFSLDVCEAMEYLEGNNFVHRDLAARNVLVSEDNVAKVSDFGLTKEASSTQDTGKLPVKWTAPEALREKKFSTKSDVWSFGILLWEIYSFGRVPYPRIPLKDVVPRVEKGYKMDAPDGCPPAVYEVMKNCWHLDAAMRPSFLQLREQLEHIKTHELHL
Serine/threonine-protein kinase 26 (Homo sapiens), sequence (Q9P289 2-416 limits assumed): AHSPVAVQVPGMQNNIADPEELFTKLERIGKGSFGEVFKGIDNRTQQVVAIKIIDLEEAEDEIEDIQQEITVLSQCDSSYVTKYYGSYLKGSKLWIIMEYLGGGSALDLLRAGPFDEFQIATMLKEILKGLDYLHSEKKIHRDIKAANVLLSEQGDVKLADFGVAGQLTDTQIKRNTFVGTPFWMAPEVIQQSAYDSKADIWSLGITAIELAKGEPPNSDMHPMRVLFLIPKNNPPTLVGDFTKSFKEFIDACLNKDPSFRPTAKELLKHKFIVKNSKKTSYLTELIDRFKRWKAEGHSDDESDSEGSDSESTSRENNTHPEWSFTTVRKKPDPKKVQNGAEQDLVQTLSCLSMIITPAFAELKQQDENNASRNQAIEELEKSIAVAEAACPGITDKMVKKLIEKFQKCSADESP
Serine/threonine-protein kinase PAK 2 (Homo sapiens), sequence (Q13177 whole entry): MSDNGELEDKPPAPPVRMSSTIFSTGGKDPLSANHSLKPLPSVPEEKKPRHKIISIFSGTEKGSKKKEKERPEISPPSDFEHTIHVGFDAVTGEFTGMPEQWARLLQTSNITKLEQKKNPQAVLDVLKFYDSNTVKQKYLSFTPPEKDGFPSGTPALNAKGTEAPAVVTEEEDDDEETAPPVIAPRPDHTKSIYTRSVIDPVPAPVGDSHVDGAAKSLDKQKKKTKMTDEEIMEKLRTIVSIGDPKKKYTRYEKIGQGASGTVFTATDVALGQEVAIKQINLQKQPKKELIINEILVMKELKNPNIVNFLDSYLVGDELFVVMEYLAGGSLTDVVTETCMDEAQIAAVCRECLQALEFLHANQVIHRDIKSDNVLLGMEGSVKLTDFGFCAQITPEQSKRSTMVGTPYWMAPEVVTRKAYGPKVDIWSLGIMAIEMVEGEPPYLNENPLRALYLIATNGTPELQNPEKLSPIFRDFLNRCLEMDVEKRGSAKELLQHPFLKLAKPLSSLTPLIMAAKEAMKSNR
Serine/threonine-protein kinase D3 (PRKD3/PKCν) (Homo sapiens), sequence (O94806 whole entry, looked up): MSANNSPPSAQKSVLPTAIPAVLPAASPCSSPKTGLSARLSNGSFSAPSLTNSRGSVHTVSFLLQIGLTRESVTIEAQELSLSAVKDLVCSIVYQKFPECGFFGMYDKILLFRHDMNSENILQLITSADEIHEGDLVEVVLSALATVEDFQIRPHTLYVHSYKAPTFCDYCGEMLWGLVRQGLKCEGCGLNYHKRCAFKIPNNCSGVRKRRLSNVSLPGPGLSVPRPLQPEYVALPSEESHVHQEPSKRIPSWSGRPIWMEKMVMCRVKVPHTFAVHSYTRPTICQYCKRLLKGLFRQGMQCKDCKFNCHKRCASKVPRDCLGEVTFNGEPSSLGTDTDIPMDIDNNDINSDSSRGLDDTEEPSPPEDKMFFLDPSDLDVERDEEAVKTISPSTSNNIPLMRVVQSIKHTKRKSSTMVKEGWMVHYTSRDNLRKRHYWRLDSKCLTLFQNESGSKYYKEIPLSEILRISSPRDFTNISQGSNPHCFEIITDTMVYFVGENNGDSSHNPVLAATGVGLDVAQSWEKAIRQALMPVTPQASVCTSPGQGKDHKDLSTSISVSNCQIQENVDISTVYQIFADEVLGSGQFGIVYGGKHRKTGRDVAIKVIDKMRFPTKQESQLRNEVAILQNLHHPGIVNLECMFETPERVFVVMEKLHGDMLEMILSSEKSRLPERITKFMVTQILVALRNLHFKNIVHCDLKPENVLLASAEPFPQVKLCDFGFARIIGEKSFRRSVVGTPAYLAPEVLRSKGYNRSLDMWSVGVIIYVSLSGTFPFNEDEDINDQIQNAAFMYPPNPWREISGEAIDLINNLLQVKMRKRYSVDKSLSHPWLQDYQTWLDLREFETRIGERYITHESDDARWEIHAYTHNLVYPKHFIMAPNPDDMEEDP
Serine/threonine-protein kinase 25 (Homo sapiens), sequence (O00506 whole entry, looked up): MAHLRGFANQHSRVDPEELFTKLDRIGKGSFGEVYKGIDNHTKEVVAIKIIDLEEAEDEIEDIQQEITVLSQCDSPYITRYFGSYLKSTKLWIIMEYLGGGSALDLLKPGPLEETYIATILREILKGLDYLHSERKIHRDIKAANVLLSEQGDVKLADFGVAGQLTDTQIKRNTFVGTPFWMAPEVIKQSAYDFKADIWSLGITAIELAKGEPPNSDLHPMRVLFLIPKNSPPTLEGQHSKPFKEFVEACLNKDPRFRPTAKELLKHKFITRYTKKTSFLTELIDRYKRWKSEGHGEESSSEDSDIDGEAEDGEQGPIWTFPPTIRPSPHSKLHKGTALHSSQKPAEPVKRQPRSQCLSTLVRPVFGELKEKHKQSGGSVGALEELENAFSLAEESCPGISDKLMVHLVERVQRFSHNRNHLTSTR
Dual specificity protein kinase CLK1 (Homo sapiens), sequence (P49759 whole entry, looked up): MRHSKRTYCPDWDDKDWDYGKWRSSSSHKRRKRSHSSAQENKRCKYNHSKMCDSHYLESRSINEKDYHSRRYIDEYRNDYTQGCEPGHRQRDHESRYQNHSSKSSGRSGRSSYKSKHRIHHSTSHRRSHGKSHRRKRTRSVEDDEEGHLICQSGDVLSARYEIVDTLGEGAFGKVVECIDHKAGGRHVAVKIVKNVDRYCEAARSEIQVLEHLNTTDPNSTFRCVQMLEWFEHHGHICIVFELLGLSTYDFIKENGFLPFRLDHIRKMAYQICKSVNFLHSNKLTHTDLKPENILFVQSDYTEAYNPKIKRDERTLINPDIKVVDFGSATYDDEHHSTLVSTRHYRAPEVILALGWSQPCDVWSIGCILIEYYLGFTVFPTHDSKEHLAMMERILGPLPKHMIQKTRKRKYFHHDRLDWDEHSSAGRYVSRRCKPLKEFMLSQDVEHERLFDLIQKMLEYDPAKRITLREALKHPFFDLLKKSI

With `c1ccc(CN2CCC(n3ncc4c(N5CCOCC5)nc(-c5cnc6ccccc6c5)nc43)CC2)cc1` the IC50 [1] was 120 nM.

In the case of `Oc1ccc(-c2nc(N3CCOCC3)c3cnn(C4CCN(Cc5ccccc5)CC4)c3n2)cc1`, the IC50 [1] is reported as 170 nM.

With `O=C(c1cccnc1)N1CCC(n2ncc3c(N4CCOCC4)nc(-c4cccc(O)c4)nc32)CC1` the fold change (FC) [2] was greater than 10, the IC50 [1] was 6 nM and the IC50 [3] was 86 nM.

For `O=c1[nH]c2ccc(-c3nc(N4CCOCC4)c4cnn(C5CCN(Cc6ccccc6)CC5)c4n3)cc2[nH]1`, the fold change (FC) [2] was greater than 20 and the IC50 [1] was 190 nM.

`c1cc2cc(-c3nc(N4CCOCC4)c4cnn(C5CCNCC5)c4n3)ccc2[nH]1` gave an IC50 [1] of 170 nM.

Work on `O=C(c1ccccc1)N1CCC(n2ncc3c(N4CCOCC4)nc(-c4cccc(O)c4)nc32)CC1` yielded an IC50 [1] of 4 nM and an IC50 [3] of 50 nM.

Work on `Oc1cccc(-c2nc(N3CCOCC3)c3cnn(C4CCN(Cc5cccnc5)CC4)c3n2)c1` yielded an IC50 [1] of 10 nM.

For `Oc1ccccc1-c1nc(N2CCOCC2)c2cnn(C3CCN(Cc4ccccc4)CC3)c2n1`, the IC50 [1] was 1260 nM.

Compound `c1ccc(CN2CCC(n3ncc4c(N5CCOCC5)nc(-c5ccncc5)nc43)CC2)cc1` has an IC50 [1] of 7300 nM.

For `Oc1cccc(-c2nc(N3CCOCC3)c3cnn(C4CCN(Cc5ccccc5)CC4)c3n2)c1`, the half-life [4] was 13 min, the fold change (FC) [2] was greater than 10 and the IC50 [1] was 78 nM.

In the case of `c1ccc(CN2CCC(n3ncc4c(N5CCOCC5)nc(-c5ccc6cc[nH]c6c5)nc43)CC2)cc1`, the IC50 [1] is reported as 230 nM.

With `c1cncc(CN2CCC(n3ncc4c(N5CCOCC5)nc(-c5ccc6[nH]ccc6c5)nc43)CC2)c1` the Activity [5] was “Dose-dependent effect”, the Activity [6] was “Dose-dependent effect” and the Activity [7] was “Dose-dependent effect”. For the same compound, the Activity [8] was “Dose-dependent effect”, the Activity [9] was “Active” and the Activity [10] was “Active”. The Activity [11] was “inactive”, the Activity [12] was “inactive” and the inhibition [13] was 50%. It also gave an inhibition [14] of 50%, an inhibition [15] of 50% and an inhibition [16] of 50%. It also gave an inhibition [17] of 50%, an inhibition [18] of 50% and an inhibition [19] of 50%. It also gave an inhibition [20] of 50%, an inhibition [21] of 50% and an inhibition [22] of 50%. For the same compound, the inhibition [23] was 50%, the inhibition [24] was 50% and the Activity [25] was “Active”. The IC50 [1] was 9 nM, the inhibition [26] was 50% and the Activity [27] was “Dose-dependent effect”.

For `c1ccc(CN2CCC(n3ncc4c(N5CCOCC5)nc(-c5ccc6ncccc6c5)nc43)CC2)cc1`, the IC50 [1] was 5950 nM.

For `O=C(c1cccnc1)N1CCC(n2ncc3c(N4CCOCC4)nc(-c4ccc5[nH]ccc5c4)nc32)CC1`, the IC50 [1] was 4 nM and the IC50 [3] was 5870 nM.

Compound `c1ccc(CN2CCC(n3ncc4c(N5CCOCC5)nc(-c5cccnc5)nc43)CC2)cc1` has an IC50 [1] of 695 nM.

With `c1ccc(CN2CCC(n3ncc4c(N5CCOCC5)nc(-c5cccc6cc[nH]c56)nc43)CC2)cc1` the IC50 [1] was 380 nM.

For `Oc1cccc(-c2nc(N3CCOCC3)c3cnn(C4CCNCC4)c3n2)c1`, the IC50 [1] was 215 nM.

Work on `CC(=O)N1CCC(n2ncc3c(N4CCOCC4)nc(-c4cccc(O)c4)nc32)CC1` yielded an IC50 [1] of 49 nM.

In the case of `CO[C@H]1C[C@@H]2CC[C@@H](C)[C@@](O)(O2)C(=O)C(=O)N2CCCC[C@H]2C(=O)O[C@H]([C@H](C)C[C@@H]2CC[C@@H](O)[C@H](OC)C2)CC(=O)[C@H](C)/C=C(\C)[C@@H](O)[C@@H](OC)C(=O)[C@H](C)C[C@H](C)/C=C/C=C/C=C/1C`, the Activity [5] is reported as “Active”, the Activity [6] is reported as “Active” and the Activity [7] is reported as “inactive”. The Activity [27] was “inactive”.

With `c1ccc(CN2CCC(n3ncc4c(N5CCOCC5)nc(-c5ccc6[nH]ccc6c5)nc43)CC2)cc1` the IC50 [1] was 88 nM.

Compound `c1ccc(CN2CCC(n3ncc4c(N5CCOCC5)nc(-c5cccc6[nH]ccc56)nc43)CC2)cc1` has an IC50 [1] of 145 nM.

`c1ccc(CN2CCC(n3ncc4c(N5CCOCC5)nc(-c5cc6ccccc6[nH]5)nc43)CC2)cc1` gave an IC50 [1] of 130 nM.
